These results are taken from patent US9863701B2, “Compositions and methods for atmospheric spray freeze drying” (Aerosol Therapeutics, LLC, priority 2013, dated 2018).

Data set [1] is described as follows: Moisture content of powder after atmospheric spray freeze drying, original equipment. The class given is physicochemical. As to conditions: 15 wt % mannitol aqueous solution; dried 1 hr at around -15° C., then raised to room temperature within 30 minutes. As for the experimental part:
The apparatus is allowed to run for approximately 5 to 15 minutes to reach the desired temperature in the chamber 110, 210, 310 via gas cooled by a refrigeration system providing gas flow into the chamber 110 through the porous wall. The aqueous solution or suspension of the substances to be dried is then sprayed using the atomizer 102, 202, 302 and frozen simultaneously at a chosen temperature by the surrounding curtain of liquid nitrogen generated from ring nozzle 218, 318 or an equivalent such as cryogenic flow from nozzles 118 through porous sidewalls of chamber 110. The frozen powder is conveyed down to the exit filter 122, 222, 322 by the concurrent downstream flow. After spray freezing, drying begins. The frozen powder collected on the exit filter 122, 222, 322, at the bottom is dried continuously at atmospheric pressure until the target moisture of the frozen powder is removed by the cold desiccated gas stream. After atmospheric spray-freeze drying, a loose powder remains on the exit filter 122, 222, 322. This powder can easily be broken up into free flowing, dry porous particles usually of approximately the same size and shape as the original frozen droplets.
In one example, powder was produced using the method described above. […] The moisture content was measured to be only 0.9 wt %.

Data set [2] is described as follows: Moisture content of powder after ASFD run, second generation equipment. The class given is physicochemical. As to conditions: 10% BGG aqueous solution, 50 ml; spray gas 5 SCFM, drying 20 SCFM; after three hours and thirty minutes.
Method: A typical ASFD run to dry Bovine Gamma Globulin (BGG) was conducted per a stepwise procedure like the following example. A solution of BGG was prepared such that the BGG constituted 10% by weight of an aqueous solution. Once the inner chamber was cooled to a temperature of −140° F., 50 ml of solution was sprayed at a rate of 1 ml per second and at a pressure of 40 psi into the reactor chamber after the flow of cooling gas had been decreased to 5 SCFM. A flow rate of 20 SCFM was then set for drying. Temperature during the first hour was set at 30° F., and increased by five degrees at hour two and hour three. […] After three hours and thirty minutes the powder was removed from the chamber and tested for water content.

Compound `OC[C@@H](O)[C@@H](O)[C@H](O)[C@H](O)CO` [mannitol] yielded a moisture content in data set [1] of 0.9 wt %.

Regarding Bovine Gamma Globulin [BGG], the moisture content in data set [2] came to 4.2%.
